In patent publication US9169268B2, “Use of 7-alkoxy fangchinoline compounds in preventing, alleviating and/or treating depression” (Peking University, priority 2012, dated 2015):

How the values were obtained:
[1] = system: chronic unpredictable stress (CUS) model in rats; assay: Forced swimming test in chronic unpredictable stress (CUS) model in rats; format: in vivo; details: 7 days
Method: (§1) The chronic unpredictable stress model is usually used as a depression model. The experimental method is as follows. Stimulation includes forced swimming (10° C., 6 min), tail clamping (1 cm from the tail tip, 1 min), water deprivation (24 h), fasting (24 h), isolated housing (24 h), tail suspension (1 h), immobility (2 h), high-speed horizontal oscillation (120 times/min, 1 h), foot shock for 45 minutes (mean 1 mA, time course 1 s, once/min). These stressors were randomly scheduled over a one-week period and repeated throughout the 23-day experiment. The non-stress control group was housed under normal conditions. Time: between 9:00 a.m. and 2:00 p.m. Since Day 15, the animals in each group were daily intragastrically administered with the subject medicament and double distilled water based on body weight (blank group and CUS model group) respectively, 60 minutes before the stress. […] Behavior and sleep electroencephalogram analyses were carried out on Day 22-23 of the stress. On Day 21, 60 minutes after the final administration, a sucrose solution intake test was carried out and sleep electroencephalogram was recorded simultaneously. On Day 22, EPM and forced swimming tests were carried out.

[2] = system: chronic unpredictable stress (CUS) model in rats; assay: Sucrose solution preference in CUS model in rats; format: in vivo; details: 7 days
Method: as §1

[3] = system: chronic unpredictable stress (CUS) model in rats; assay: Autonomous movement in CUS model in rats; format: in vivo; details: 7 days
Method: as §1

[4] = system: chronic unpredictable stress (CUS) model in rats; assay: Elevated plus-maze (EPM) anxiety test in CUS model in rats; format: in vivo
Method: as §1

GSK-3β = GSK-3β (Homo sapiens, UniProt P49841); assay: GSK-3β activity assay (Z′-LYTE); format: biochemical; details: n = 3; read-out: Mean EC50 in the inhibition of GSK-3β activity
Chain of GSK-3β (P49841 whole entry): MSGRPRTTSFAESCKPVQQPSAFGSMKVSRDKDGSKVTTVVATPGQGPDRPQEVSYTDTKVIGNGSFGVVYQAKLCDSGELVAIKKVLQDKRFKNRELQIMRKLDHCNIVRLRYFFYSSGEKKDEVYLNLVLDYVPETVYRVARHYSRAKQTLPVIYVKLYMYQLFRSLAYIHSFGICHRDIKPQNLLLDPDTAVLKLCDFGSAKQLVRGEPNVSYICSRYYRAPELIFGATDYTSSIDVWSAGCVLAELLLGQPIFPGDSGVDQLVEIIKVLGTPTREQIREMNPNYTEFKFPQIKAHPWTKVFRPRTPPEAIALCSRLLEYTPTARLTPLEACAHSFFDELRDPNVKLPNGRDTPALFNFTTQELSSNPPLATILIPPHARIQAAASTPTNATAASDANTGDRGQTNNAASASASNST
Method: The GSK-3β phosphorylation level was determined by using a Z′-LYTE assay (Life Technologies). The assay was performed in a 384-well plate. The wells of the testing plate were divided into blank control wells (without the enzyme), enzyme control wells (without the testing substance), and testing wells (with the enzyme and the testing substance at various concentrations). The inhibition rate of the testing substance is expressed as: inhibition %=(E−S)/(E−B)×100, wherein E is the average emission ratio of enzyme control wells; B is the average emission ratio of blank control wells; S is the emission ratio of the testing sample wells. The median effective concentration of each compound (EC50 μM) was calculated by using the resultant inhibition rate of each sample at various concentrations.

[5] = Serum AST and ALT in mice after 14 days of intragastric administration; format: in vivo
Method: Blood was collected from epicanthal, stood at room temperature for about 2 hours, and centrifuged for 12 minutes at 3000 r/min after coagulation. The serum was removed and centrifuged again. Alanine transaminase (ALT) and aspartate transaminase (AST) levels were determined

[6] = mouse serum, 30 mg/kg/day intragastric, 14 days
[7] = mouse serum, 60 mg/kg/day intragastric, 14 days

Row | Compound | EC50 (GSK-3β) [nM] | Sucrose solution preference ([2]; 7.5 mg/kg intragastric daily) | Sucrose solution preference ([2]; 15 mg/kg intragastric daily) | Sucrose solution preference ([2]; 30 mg/kg intragastric daily) | Autonomous movement Distance ([3]; 7.5 mg/kg intragastric daily) | Autonomous movement Speed ([3]; 7.5 mg/kg intragastric daily) | Autonomous movement Distance ([3]; 15 mg/kg intragastric daily) | Autonomous movement Speed ([3]; 15 mg/kg intragastric daily) | Autonomous movement Distance ([3]; 30 mg/kg intragastric daily) | Autonomous movement Speed ([3]; 30 mg/kg intragastric daily) | Percentage of entries into open arms relative to total entries into arms ([4]; 7.5 mg/kg intragastric daily) | Percentage of residence time in open arms ([4]; 7.5 mg/kg intragastric daily) | Percentage of entries into open arms relative to total entries into arms ([4]; 15 mg/kg intragastric daily) | Percentage of residence time in open arms ([4]; 15 mg/kg intragastric daily) | Percentage of entries into open arms relative to total entries into arms ([4]; 30 mg/kg intragastric daily) | Percentage of residence time in open arms ([4]; 30 mg/kg intragastric daily) | ALT ([5]; mouse, in vivo, 60 mg/kg/day) [U/L] | AST ([5]; mouse, in vivo, 60 mg/kg/day) [U/L] | further results
1 | 5-bromo-7-ethoxy fangchinoline [Compound 4] |  | 79.2 ± 3.4^##,$$ % | 81.5 ± 4.7^##,$$ % | 93.6 ± 3.2^##,$$ % | 13257.21 ± 756.36^##,$$ mm | 44.19 ± 2.64^##,$$ mm/second | 13615.71 ± 743.43^##,$$ mm | 45.39 ± 4.02^##,$$ mm/second | 14362.26 ± 771.52^##,$$ mm | 47.87 ± 5.36^##,$$ mm/second | 54.2 ± 2.6^##,$ % | 66.2 ± 3.4^##,$$ % | 55.3 ± 4.0^##,$ % | 69.5 ± 4.2^##,$$ % | 59.7 ± 5.3^##,$$ % | 68.6 ± 3.2^##,$$ % |  |  | Forced swimming Immobility time ([1]; 7.5 mg/kg intragastric daily): 134.3 ± 4.4^##,$$ seconds; Forced swimming Immobility time ([1]; 15 mg/kg intragastric daily): 96.1 ± 3.74^##,$$ seconds; Forced swimming Immobility time ([1]; 30 mg/kg intragastric daily): 60.5 ± 5.3^##,$$ seconds
2 | COc1ccc2cc1Oc1ccc(cc1)CC1c3cc(c(OC)cc3CCN1C)Oc1c(OC(C)C)c(OC)cc3c1C(C2)N(C)CC3 (centres unmarked) [Compound 8, 7-isopropoxy fangchinoline] | 1350 | 80.5 ± 3.6 % | 84.7 ± 3.2^##,$ % | 90.1 ± 3.8^##,$$ % | 9968.41 ± 965.52^##,$$ mm | 33.22 ± 2.64^##,$$ mm/second | 12194.23 ± 887.65^##,$$ mm | 40.64 ± 4.02^##,$$ mm/second | 13053.78 ± 1005.46^##,$$ mm | 43.51 ± 5.36^##,$$ mm/second |  |  |  |  |  |  | 80.1 ± 21.3 | 89.2 ± 16.7 | 
3 | COc1cc2c3cc1Oc1c(OC)c(OC)cc4c1[C@@H](Cc1ccc(O)c(c1)Oc1ccc(cc1)C[C@@H]3N(C)CC2)N(C)CC4 [berbamine, reference compound] | > 10000 |  |  | 55.05 ± 3.06% |  |  |  |  | 1387.56 ± 584.24 mm | 4.63 ± 1.49 mm/second |  |  |  |  | 38.3 ± 1.9% | 41.0 ± 3.0% |  |  | Sucrose solution preference ([2]; 60 mg/kg intragastric daily): 49.56 ± 4.27%; Autonomous movement Distance ([3]; 60 mg/kg intragastric daily): 1053.45 ± 476.33 mm; Autonomous movement Speed ([3]; 60 mg/kg intragastric daily): 3.51 ± 1.65 mm/second; Percentage of entries into open arms relative to total entries into arms ([4]; 60 mg/kg intragastric daily): 37.5 ± 1.6%; Percentage of residence time in open arms ([4]; 60 mg/kg intragastric daily): 39.6 ± 4.2%
4 | COc1ccc2cc1Oc1ccc(cc1)C[C@H]1c3cc(c(OC)cc3CCN1C)Oc1c(OC)c(OC)cc3c1[C@H](C2)N(C)CC3 [tetrandrine, reference compound] | 9020 | 55.4 ± 3.2% | 52.9 ± 3.7% | 67.7 ± 3.3 % | 1369.54 ± 532.47 mm | 4.57 ± 1.85 mm/second | 1124.37 ± 504.85 mm | 3.75 ± 1.98 mm/second | 1027.36 ± 456.76 mm | 3.42 ± 1.33 mm/second | 38.0 ± 2.3% | 42.1 ± 3.7% | 39.5 ± 3.0% | 40.6 ± 4.8% | 43.8 ± 3.2% | 41.3 ± 3.0% |  |  | Sucrose solution preference ([2]; 60 mg/kg intragastric daily): 70.2 ± 4.6 %; Autonomous movement Distance ([3]; 60 mg/kg intragastric daily): 1285.41 ± 401.24 mm; Autonomous movement Speed ([3]; 60 mg/kg intragastric daily): 4.28 ± 1.56 mm/second; Percentage of entries into open arms relative to total entries into arms ([4]; 60 mg/kg intragastric daily): 46.2 ± 2.9 %; Percentage of residence time in open arms ([4]; 60 mg/kg intragastric daily): 42.8 ± 3.5%; AST activity and the AST/ALT ratio ([5]; mice, 30 mg/kg intragastric, 14 consecutive days): evidently enhanced; change in AST activity, ALT activity and the ratio thereof (AST/ALT) in blood serum ([5]; mice, 60 mg/kg intragastric, 14 consecutive days): all evidently enhanced; ALT [5, 6]: 83.8 ± 15.9 U/L; AST [5, 6]: 204.8 ± 21.8 U/L; AST/ALT [5, 6]: 2.44 ± 0.21; ALT [5, 7]: 113.2 ± 20.6 U/L; AST [5, 7]: 205.6 ± 22.8 U/L; AST/ALT [5, 7]: 1.82 ± 0.26

More lines, main results first:

Row | EC50 (GSK-3β) [nM] | Compound | Sucrose solution preference ([2]; 7.5 mg/kg intragastric daily) | Sucrose solution preference ([2]; 15 mg/kg intragastric daily) | Sucrose solution preference ([2]; 30 mg/kg intragastric daily) | Autonomous movement Distance ([3]; 7.5 mg/kg intragastric daily) | Autonomous movement Speed ([3]; 7.5 mg/kg intragastric daily) | Autonomous movement Distance ([3]; 15 mg/kg intragastric daily) | Autonomous movement Speed ([3]; 15 mg/kg intragastric daily) | Autonomous movement Distance ([3]; 30 mg/kg intragastric daily) | Autonomous movement Speed ([3]; 30 mg/kg intragastric daily) | Percentage of entries into open arms relative to total entries into arms ([4]; 7.5 mg/kg intragastric daily) | Percentage of residence time in open arms ([4]; 7.5 mg/kg intragastric daily) | Percentage of entries into open arms relative to total entries into arms ([4]; 15 mg/kg intragastric daily) | Percentage of residence time in open arms ([4]; 15 mg/kg intragastric daily) | Percentage of entries into open arms relative to total entries into arms ([4]; 30 mg/kg intragastric daily) | Percentage of residence time in open arms ([4]; 30 mg/kg intragastric daily) | ALT ([5]; mouse, in vivo, 60 mg/kg/day) [U/L] | AST ([5]; mouse, in vivo, 60 mg/kg/day) [U/L] | further results
5 | 3210 | COc1ccc2cc1Oc1ccc(cc1)CC1c3cc(c(OC)cc3CCN1C)Oc1c(OC)c(OC)c(Cl)c3c1C(C2)N(C)CC3 (centres unmarked) [Compound 1, 5-chloro-7-methoxy fangchinoline] | 69.6 ± 4.6 % | 78.8 ± 4.0^##,$$ % | 81.6 ± 3.7^##,$$ % | 7581.17 ± 845.04^##,$$ mm | 25.27 ± 2.38^##,$$ mm/second | 9518.08 ± 704.12^##,$$ mm | 31.73 ± 3.44^##,$$ mm/second | 10347.64 ± 923.01^##,$$ mm | 34.49 ± 3.75^##,$$ mm/second | 41.2 ± 2.3 % | 53.6 ± 4.6^##,$$ % | 46.7 ± 3.4 % | 60.8 ± 4.0^##,$$ % | 53.9 ± 3.5^##,$$ % | 60.6 ± 3.7^##,$$ % | 80.9 ± 21.4 | 117.7 ± 16.1 | AST/ALT ([5]; mouse, in vivo, 60 mg/kg/day): 1.45 ± 0.21
6 | 2010 | COc1cc(Br)c2cc1Oc1ccc(cc1)CC1c3cc(c(OC)cc3CCN1C)Oc1c(OC)c(OC)c(Br)c3c1C(C2)N(C)CC3 (centres unmarked) [Compound 2, 5,14-dibromo-7-methoxy fangchinoline] | 72.5 ± 3.0 % | 89.0 ± 4.6^##,$$ % | 88.5 ± 3.1^##,$$ % | 9031.41 ± 639.33^##,$$ mm | 30.10 ± 3.88^##,$$ mm/second | 10116.74 ± 746.48^##,$$ mm | 33.72 ± 4.02^##,$$ mm/second | 12062.32 ± 903.42^##,$$ mm | 40.21 ± 5.36^##,$$ mm/second | 45.1 ± 3.8 % | 56.5 ± 3.0^##,$$ % | 49.7 ± 4.0 % | 63.6 ± 4.1^##,$$ % | 56.2 ± 5.3^##,$$ % | 64.5 ± 3.6^##,$$ % | 87.2 ± 24.7 | 108.4 ± 17.4 | AST/ALT ([5]; mouse, in vivo, 60 mg/kg/day): 1.24 ± 0.26; melting point: 187 to 189 °C
7 | 1260 | CCOc1c(OC)c(Br)c2c3c1Oc1cc4c(cc1OC)CCN(C)C4Cc1ccc(cc1)Oc1cc(c(Br)cc1OC)CC3N(C)CC2 (centres unmarked) [Compound 5, 5,14-dibromo-7-ethoxy fangchinoline] | 84.1 ± 3.3 % | 86.0 ± 3.5^##,$$ % | 91.5 ± 4.2^##,$$ % | 13732.42 ± 732.45^##,$$ mm | 45.77 ± 2.64^##,$$ mm/second | 14003.63 ± 737.47^##,$$ mm | 46.68 ± 4.02^##,$$ mm/second | 14561.84 ± 807.52^##,$$ mm | 48.54 ± 5.36^##,$$ mm/second |  |  |  |  |  |  | 91.7 ± 15.5 | 101.5 ± 18.7 | melting point: 186 to 188 °C
